Assays:
Coagulation factor X = Coagulation factor X (Homo sapiens, UniProt P00742); test: Inhibitory activity against Coagulation factor X in human plasma; type: cell-free
Prothrombin = Prothrombin (Homo sapiens, UniProt P00734); test: Inhibitory activity against thrombin(fIIa) in human plasma; type: cell-free
Plasminogen = Plasminogen (Homo sapiens, UniProt P00747); test: Inhibitory activity against plasmin in human plasma; type: cell-free
Serine protease 1 = Serine protease 1 (Homo sapiens, UniProt P07477); test: Inhibitory activity against trypsin in human plasma; type: cell-free
Chain of Serine protease 1 (P07477 whole entry): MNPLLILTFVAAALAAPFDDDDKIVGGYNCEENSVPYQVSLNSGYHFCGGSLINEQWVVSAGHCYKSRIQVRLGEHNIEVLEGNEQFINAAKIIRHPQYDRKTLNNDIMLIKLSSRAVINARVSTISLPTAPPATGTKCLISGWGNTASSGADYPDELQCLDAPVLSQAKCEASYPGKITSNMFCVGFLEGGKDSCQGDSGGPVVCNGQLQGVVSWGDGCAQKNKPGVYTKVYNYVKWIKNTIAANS

[1] = target: Urokinase-type plasminogen activator (Homo sapiens, UniProt P00749)
[2] = In vitro anticoagulant effect to double the activated partial thromboplastin time in human plasma; type: functional

Chain of Plasminogen (P00747 97-580 limits assumed): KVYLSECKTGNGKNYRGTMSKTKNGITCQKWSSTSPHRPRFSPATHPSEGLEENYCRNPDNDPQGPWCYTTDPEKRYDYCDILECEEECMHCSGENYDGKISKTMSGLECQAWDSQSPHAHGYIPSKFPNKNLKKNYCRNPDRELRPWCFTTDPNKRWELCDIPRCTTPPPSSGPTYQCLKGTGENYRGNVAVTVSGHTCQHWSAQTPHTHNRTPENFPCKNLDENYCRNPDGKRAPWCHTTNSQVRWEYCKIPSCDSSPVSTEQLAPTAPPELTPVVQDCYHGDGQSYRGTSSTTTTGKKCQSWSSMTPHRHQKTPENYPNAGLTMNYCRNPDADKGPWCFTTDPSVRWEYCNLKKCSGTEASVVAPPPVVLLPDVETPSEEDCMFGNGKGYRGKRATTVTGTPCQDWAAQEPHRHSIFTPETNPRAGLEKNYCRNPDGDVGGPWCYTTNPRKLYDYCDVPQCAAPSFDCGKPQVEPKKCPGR
Chain of Plasminogen (P00747 581-810 limits assumed): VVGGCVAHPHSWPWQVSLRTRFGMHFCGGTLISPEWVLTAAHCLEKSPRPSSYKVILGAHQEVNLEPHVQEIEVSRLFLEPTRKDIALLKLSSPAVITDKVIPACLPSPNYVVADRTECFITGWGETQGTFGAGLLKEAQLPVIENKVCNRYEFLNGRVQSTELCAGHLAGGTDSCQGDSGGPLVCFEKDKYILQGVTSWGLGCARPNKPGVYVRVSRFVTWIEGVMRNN
Chain of Coagulation factor X (P00742 41-179 limits assumed): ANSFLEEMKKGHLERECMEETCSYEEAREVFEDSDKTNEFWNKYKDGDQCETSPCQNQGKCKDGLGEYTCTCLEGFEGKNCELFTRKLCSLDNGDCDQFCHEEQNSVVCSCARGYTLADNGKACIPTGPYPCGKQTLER
Chain of Coagulation factor X (P00742 235-488 limits assumed): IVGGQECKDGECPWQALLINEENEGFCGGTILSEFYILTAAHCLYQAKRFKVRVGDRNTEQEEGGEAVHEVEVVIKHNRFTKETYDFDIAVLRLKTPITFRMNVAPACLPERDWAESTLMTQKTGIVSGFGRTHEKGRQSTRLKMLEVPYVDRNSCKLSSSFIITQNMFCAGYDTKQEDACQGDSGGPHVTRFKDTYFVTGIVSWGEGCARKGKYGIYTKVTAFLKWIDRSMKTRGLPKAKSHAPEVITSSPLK

| SMILES | Ki (Coagulation factor X) | Ki (Prothrombin) | Ki (Plasminogen) | Ki (Serine protease 1) | Ki [1] | 2x aPPT [2] |
| --- | --- | --- | --- | --- | --- | --- |
| O=C(O)CCc1cc(Br)c(O)c(-c2[nH]c3ccccc3c2Cc2ccccc2)c1 | 300000 nM | 700000 nM | – | – | – | – |
| Cc1cc(Br)c(O)c(-c2[nH]c3ccc(C(=N)N)cc3c2CCCc2ccccc2)c1 | 7600 nM | 6600 nM | 32000 nM | 42000 nM | 8600 nM | – |
| N=C(N)c1ccc2[nH]c(-c3cc(C(=O)O)cc(Br)c3O)c(Cc3ccccc3)c2c1 | 4 nM | – | 1500 nM | 440 nM | – | 0.55 µM |
| NC(=O)c1ccc2[nH]c(-c3cc(CCC(=O)O)cc(Br)c3O)c(Cc3ccccc3)c2c1 | – | 78000 nM | – | – | – | – |
| N=C(N)c1ccc2[nH]c(-c3cc(Br)cc(CCC(=O)O)c3)c(Cc3ccccc3)c2c1 | 1000 nM | 12000 nM | – | – | – | – |
| N=C(N)c1ccc2[nH]c(-c3cc(Cc4nn[nH]n4)cc(Br)c3O)c(Cc3ccccc3)c2c1 | 20 nM | 440 nM | 2200 nM | 840 nM | 350 nM | 0.59 µM |
| N=C(N)c1ccc2[nH]c(-c3cc(CCCC(=O)O)cc(Br)c3O)c(Cc3ccccc3)c2c1 | 0.7 nM | 40 nM | 1500 nM | 610 nM | 270 nM | 0.75 µM |
| Cc1cc(-c2ccccc2)c(O)c(-c2cc3cc(C(=N)N)ccc3[nH]2)c1 | 640 nM | 4000 nM | 1500 nM | 1800 nM | 110 nM | – |
| N=C(N)c1ccc2[nH]c(-c3cc(CC(N)=O)cc(Br)c3O)c(Cc3ccccc3)c2c1 | 2 nM | 25 nM | – | – | – | – |
| N=C(N)c1ccc2[nH]c(-c3cc(-c4nn[nH]n4)cc(Br)c3O)c(Cc3ccccc3)c2c1 | 10 nM | 350 nM | 4200 nM | 1300 nM | 550 nM | 0.7 µM |
| Cc1cc(C)c(O)c(-c2cc3cc(C(=N)N)ccc3[nH]2)c1 | 1200 nM | 6900 nM | 10000 nM | 5000 nM | 2300 nM | – |
| Cc1ccc(O)c(-c2cc3cc(C(=N)N)ccc3[nH]2)c1 | – | 23000 nM | 21000 nM | 8200 nM | 12400 nM | – |

Now from value to molecule, other results behind:

| Ki (Coagulation factor X) | Ki (Prothrombin) | Ki (Plasminogen) | Ki (Serine protease 1) | Ki [1] | SMILES | 2x aPPT [2] |
| --- | --- | --- | --- | --- | --- | --- |
| 0.5 nM | 120 nM | 1700 nM | 600 nM | 280 nM | N=C(N)c1ccc2[nH]c(-c3cc(CCC(=O)O)cc(Br)c3O)c(Cc3ccccc3)c2c1 | 0.52 µM |
| 3 nM | 80 nM | – | – | – | COC(=O)Cc1cc(Br)c(O)c(-c2[nH]c3ccc(C(=N)N)cc3c2Cc2ccccc2)c1 | – |
| 100 nM | 360 nM | 1200 nM | 640 nM | 110 nM | Cc1cc(Br)c(O)c(-c2cc3cc(C(=N)N)ccc3[nH]2)c1 | – |
| 2 nM | 43 nM | – | – | – | CN(C)C(=O)Cc1cc(Br)c(O)c(-c2[nH]c3ccc(C(=N)N)cc3c2Cc2ccccc2)c1 | – |
| 45 nM | 2500 nM | – | – | – | COc1c(Br)cc(CCC(=O)O)cc1-c1[nH]c2ccc(C(=N)N)cc2c1Cc1ccccc1 | – |
| 3 nM | 1000 nM | 1800 nM | 1200 nM | 430 nM | N=C(N)c1ccc2[nH]c(-c3cc(CC(=O)O)cc(Br)c3O)c(Cc3ccccc3)c2c1 | 0.38 µM |
| 20 nM | 260 nM | 4600 nM | 2400 nM | 1600 nM | Cc1cc(Br)c(O)c(-c2[nH]c3ccc(C(=N)N)cc3c2Cc2ccccc2)c1 | 3.9 µM |
| 10 nM | 750 nM | 3000 nM | 1300 nM | 350 nM | CC(C)(C(=O)O)c1cc(Br)c(O)c(-c2[nH]c3ccc(C(=N)N)cc3c2Cc2ccccc2)c1 | 0.93 µM |
| 0.5 nM | 330 nM | 1200 nM | 3800 nM | 400 nM | N=C(N)c1ccc2[nH]c(-c3cc(CCOP(=O)(O)O)cc(Br)c3O)c(Cc3ccccc3)c2c1 | 0.42 µM |
| 350 nM | 710 nM | 8800 nM | 3400 nM | 2300 nM | Cc1cc(Br)c(O)c(-c2[nH]c3ccc(C(=N)N)cc3c2CCc2ccccc2)c1 | – |
| 130 nM | 460 nM | 1000 nM | 700 nM | 190 nM | Cc1cc(Cl)c(O)c(-c2cc3cc(C(=N)N)ccc3[nH]2)c1 | – |

Reference: ChEMBL document CHEMBL1134132, “Development of potent and selective factor Xa inhibitors” (Bioorg Med Chem Lett, 2001)
